Values joined by “and” are separate entries in the source; they are usually repeats but may differ in a detail not shown here. Equal values may be shown once. Inconclusive results and toxic doses are left out. Cut-off read from the data, not from the text of the source: active = T/C of 150% or more; inactive = T/C below 125%.
System: L1210 leukemia ip in BDF1 mice, survival T/C
Assay: NCI In Vivo Anticancer Drug Screen. Data for tumor model L1210 Leukemia (intraperitoneal) in B6D2F1 (BDF1) mice
Details: endpoint: mean survival time, higher = longer survival
In short: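 Tumor was transplanted into mice, which were then dosed with test compound or vehicle alone. Survival was recorded for each group, and the treated figure was expressed relative to the control figure.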

[1] = dose: 25.0 mg/kg/injection, schedule: Q01DX009 (ip), vehicle: Klucel (hydroxypropylcellulose) (HPC)
[2] = dose: 50.0 mg/kg/injection, schedule: Q01DX009 (ip), vehicle: Klucel (hydroxypropylcellulose) (HPC)
[3] = dose: 100.0 mg/kg/injection, schedule: Q01DX009 (ip), vehicle: Klucel (hydroxypropylcellulose) (HPC)
[4] = dose: 100.0 mg/kg/injection, schedule: Q04DX003 (ip), vehicle: Klucel (hydroxypropylcellulose) (HPC)
[5] = dose: 200.0 mg/kg/injection, schedule: Q04DX003 (ip), vehicle: Klucel (hydroxypropylcellulose) (HPC)
[6] = dose: 400.0 mg/kg/injection, schedule: Q01DX009 (ip), vehicle: Klucel (hydroxypropylcellulose) (HPC)
[7] = dose: 400.0 mg/kg/injection, schedule: Q04DX003 (ip), vehicle: Klucel (hydroxypropylcellulose) (HPC)
[8] = dose: 200.0 mg/kg/injection, schedule: Q01DX009 (ip), vehicle: Klucel (hydroxypropylcellulose) (HPC)
[9] = dose: 50.0 mg/kg/injection, schedule: Q01DX001 (ip), vehicle: saline
[10] = dose: 100.0 mg/kg/injection, schedule: Q01DX001 (ip), vehicle: saline
[11] = dose: 200.0 mg/kg/injection, schedule: Q01DX001 (ip), vehicle: saline
[12] = dose: 400.0 mg/kg/injection, schedule: Q01DX001 (ip), vehicle: saline
[13] = dose: 75.0 mg/kg/injection, schedule: Q01DX001 (ip), vehicle: saline
[14] = dose: 150.0 mg/kg/injection, schedule: Q01DX001 (ip), vehicle: saline
[15] = dose: 100.0 mg/kg/injection, schedule: Q01DX009 (ip), vehicle: saline
[16] = dose: 50.0 mg/kg/injection, schedule: Q01DX009 (ip), vehicle: other
[17] = dose: 100.0 mg/kg/injection, schedule: Q01DX009 (ip), vehicle: other
[18] = dose: 100.0 mg/kg/injection, schedule: Q01DX001 (ip), vehicle: carboxymethylcellulose (CMC)
[19] = dose: 200.0 mg/kg/injection, schedule: Q01DX001 (ip), vehicle: carboxymethylcellulose (CMC)

Measured: T/C

Cc1ccc(C2NC(=S)N3C(c4ccc(C)cc4)NC(=S)N23)cc1 (stereo not drawn)
inactive: dose: 100.0 mg/kg/injection, schedule: Q01DX009 (ip), vehicle: gum acacia 105 % of control | dose: 100.0 mg/kg/injection, schedule: Q04DX003 (ip), vehicle: gum acacia 95 % of control | dose: 200.0 mg/kg/injection, schedule: Q01DX009 (ip), vehicle: gum acacia 100 % of control | dose: 200.0 mg/kg/injection, schedule: Q04DX003 (ip), vehicle: gum acacia 90 % of control | dose: 400.0 mg/kg/injection, schedule: Q01DX009 (ip), vehicle: gum acacia 91 % of control | dose: 400.0 mg/kg/injection, schedule: Q04DX003 (ip), vehicle: gum acacia 95 % of control

CCCCOc1ccc(C=Nc2ccc(C)cc2)cc1
inactive: dose: 12.5 mg/kg/injection, schedule: Q01DX009 (ip), vehicle: Klucel (hydroxypropylcellulose) (HPC) 110 % of control | [1] 109 % of control | [2] 103 % of control | [3] 93 % of control | [4] 97 % of control | [5] 95 % of control | [6] 92 % of control | [7] 107 % of control

N=c1ncn(Cc2ccccc2)c2nc[nH]c12
inactive: [3] 91 % of control | [8] 101 % of control

CS(=O)(=O)OCCN(CCOS(C)(=O)=O)c1ccc([N+](=O)[O-])c(Cl)c1
inactive: [9] 96 % of control | [10] 96 % of control | [11] 100 % of control | [12] 91 % of control

CCCC(C)C1(CCC)C(=O)NC(=S)NC1=O (stereo not drawn)
inactive: [13] 94 % of control | [14] 98 % of control | dose: 300.0 mg/kg/injection, schedule: Q01DX001 (ip), vehicle: saline 92 % of control

NC(=O)N1OCC(N)C1=O (stereo not drawn)
inactive: [15] 101 % of control | dose: 100.0 mg/kg/injection, schedule: Q04DX003 (ip), vehicle: saline 108 % of control | dose: 200.0 mg/kg/injection, schedule: Q01DX009 (ip), vehicle: saline 87 % of control | dose: 200.0 mg/kg/injection, schedule: Q04DX003 (ip), vehicle: saline 98 % of control | dose: 400.0 mg/kg/injection, schedule: Q01DX009 (ip), vehicle: saline 95 % of control | dose: 400.0 mg/kg/injection, schedule: Q04DX003 (ip), vehicle: saline 97 % of control

O=C(Nc1ccc(C(Cl)(Cl)Cl)cc1)Nc1cc(Cl)ccc1Cl
inactive: dose: 25.0 mg/kg/injection, schedule: Q01DX009 (ip), vehicle: other 109 % of control | [16] 93 % of control | [3] 93 % of control | [17] 95 % of control

O=[N+]([O-])c1cccc(N(CCO)CCO)c1
inactive: [9] 96 % of control | [10] 106 % of control | [11] 93 % of control | [12] 100 % of control

O=C1c2ccccc2C(=O)N1N(c1ccccc1)c1ccccc1
inactive: [2] 108 % of control | [4] 95 % of control | [8] 106 % of control | [5] 97 % of control | [6] 103 % of control | [7] 109 % of control

O=C(OC1(c2ccccc2)CC2CC1c1ccccc12)c1ccc([N+](=O)[O-])cc1 (stereo not drawn)
inactive: dose: 50.0 mg/kg/injection, schedule: Q01DX001 (ip), vehicle: carboxymethylcellulose (CMC) 88 % of control | [18] 95 % of control | [19] 95 % of control

CC/C(Cc1ccc(O)cc1)=N\N=C(N)N
inactive: dose: 15.0 mg/kg/injection, schedule: Q01DX Z (ip), vehicle: methylcellulose (MC) 97 % of control | dose: 30.0 mg/kg/injection, schedule: Q01DX Z (ip), vehicle: methylcellulose (MC) 94 % of control | dose: 30.0 mg/kg/injection, schedule: Q01DX Z (oral), vehicle: methylcellulose (MC) 92 % of control | dose: 60.0 mg/kg/injection, schedule: Q01DX Z (ip), vehicle: methylcellulose (MC) 97 % of control | dose: 60.0 mg/kg/injection, schedule: Q01DX Z (oral), vehicle: methylcellulose (MC) 98 % of control | dose: 240.0 mg/kg/injection, schedule: Q01DX Z (oral), vehicle: methylcellulose (MC) 93 % of control

N#CC(C#N)N=Nc1ccc(S(=O)(=O)Nc2ccccn2)cc1
inactive: [13] 95 % of control | [14] 90 % of control

CCCCCCCCCc1ccc(OP(Oc2ccccc2)Oc2ccc(CCCCCCCCC)cc2)cc1
inactive: [13] 100 % of control | [14] 109 % of control

CCCCn1c(=S)[nH]c2ccccc2c1=O
inactive: [3] 100 % of control | [4] 98 % of control | [8] 94 % of control | [5] 95 % of control | [6] 96 % of control | [7] 92 % of control

O=C(NCC(O)CNC(=O)Nc1ccc(C2=NCCCN2)cc1)Nc1ccc(C2=NCCCN2)cc1
inactive: dose: 1.25 mg/kg/injection, schedule: Q01DX Z (ip), vehicle: carboxymethylcellulose (CMC) 98 % of control | dose: 2.5 mg/kg/injection, schedule: Q01DX Z (ip), vehicle: carboxymethylcellulose (CMC) 101 % of control | dose: 5.0 mg/kg/injection, schedule: Q01DX Z (ip), vehicle: carboxymethylcellulose (CMC) 90 % of control | dose: 10.0 mg/kg/injection, schedule: Q01DX Z (ip), vehicle: carboxymethylcellulose (CMC) 97 % of control and 106 % of control | dose: 20.0 mg/kg/injection, schedule: Q01DX Z (ip), vehicle: carboxymethylcellulose (CMC) 104 % of control

O=C(/C(Br)=C/c1ccccc1)c1ccccc1
inactive: [16] 103 % of control | [17] 105 % of control | dose: 200.0 mg/kg/injection, schedule: Q01DX009 (ip), vehicle: other 100 % of control

C[N+](C)(C)C.Cl[Br-]Br
inactive: dose: 6.25 mg/kg/injection, schedule: Q01DX009 (ip), vehicle: alcohol 95 % of control | dose: 12.5 mg/kg/injection, schedule: Q01DX009 (ip), vehicle: alcohol 89 % of control

N#Cc1ccnc2ccccc12
inactive: [18] 97 % of control | [19] 97 % of control | dose: 400.0 mg/kg/injection, schedule: Q01DX001 (ip), vehicle: carboxymethylcellulose (CMC) 98 % of control

CCCCCCCCCCCCCOc1ccc(Sc2ccc([N+](=O)[O-])cc2)cc1
inactive: [7] 88 % of control

CN(CCCl)Cc1ccccc1
inactive: dose: 8.2 mg/kg/injection, schedule: Q01DX Z (ip), vehicle: methylcellulose (MC) 107 % of control | dose: 18.8 mg/kg/injection, schedule: Q01DX Z (ip), vehicle: methylcellulose (MC) 109 % of control and 112 % of control | [1] 101 % of control | dose: 25.0 mg/kg/injection, schedule: Q01DX009 (ip), vehicle: saline 107 % of control | dose: 28.0 mg/kg/injection, schedule: Q01DX Z (ip), vehicle: methylcellulose (MC) 114 % of control and 121 % of control | [2] 112 % of control | dose: 50.0 mg/kg/injection, schedule: Q01DX009 (ip), vehicle: saline 103 % of control | dose: 50.0 mg/kg/injection, schedule: Q04DX003 (ip), vehicle: Klucel (hydroxypropylcellulose) (HPC) 101 % of control | dose: 63.0 mg/kg/injection, schedule: Q01DX Z (ip), vehicle: methylcellulose (MC) 87 % of control | [15] 97 % of control | [4] 108 % of control

Nc1ccc(/C=C\C(=O)NCc2cccnc2)cc1
inactive: dose: 25.0 mg/kg/injection, schedule: Q01DX009 (ip), vehicle: saline with Tween-80 109 % of control | dose: 50.0 mg/kg/injection, schedule: Q01DX009 (ip), vehicle: saline with Tween-80 102 % of control | dose: 100.0 mg/kg/injection, schedule: Q01DX009 (ip), vehicle: saline with Tween-80 93 % of control and 90 % of control

O=C(O)CCC(=O)CC[N+](=O)[O-]
inactive: [13] 94 % of control | [14] 97 % of control

C=C1CC2(CCC3(CC2)OCCO3)OC1=O
inactive: dose: 100.0 mg/kg/injection, schedule: Q01DX001 (ip), vehicle: saline with Tween-80 95 % of control | dose: 200.0 mg/kg/injection, schedule: Q01DX001 (ip), vehicle: saline with Tween-80 95 % of control | dose: 400.0 mg/kg/injection, schedule: Q01DX001 (ip), vehicle: saline with Tween-80 98 % of control

CC(=O)NCc1cccc[n+]1[O-]
inactive: dose: 25.0 mg/kg/injection, schedule: Q04DX002 (ip), vehicle: saline 110 % of control | dose: 50.0 mg/kg/injection, schedule: Q04DX002 (ip), vehicle: saline 105 % of control | dose: 100.0 mg/kg/injection, schedule: Q04DX002 (ip), vehicle: saline 101 % of control and 105 % of control

— PubChem BioAssay AID248 (DTP/NCI, 2004)
